Experimental data as given in US9872919B2, “Prodrugs for selective anticancer therapy” (THE RESEARCH FOUNDATION FOR THE STATE UNIVERSITY OF NEW YORK, priority 2012, dated 2018).

Key:
[1] = tested on: malignant cell lines with high HDAC and CTSL activity (COGA-10, HCA-7, HT29, HCT116); assay: MTS cell viability assay, malignant colon cancer cell lines; type: cell-based, human; conditions: 5 d, panel of colon cell lines, given as a range, read-out: IC50, inhibition of cell viability
Experimental: (§1) FIG. 13. Inhibition of cell viability by BKAc-Puro is presented in dose-response curve format for the same cell lines as in FIG. 8. The cell lines were treated with DMSO or the indicated doses of agent (4.22, 8.44, 16.9, 33.8, 67.5, or 135 μM) for 5 d followed by MTS assay. Data represent mean values of triplicate mesurements±s.d. (n=3). IC50 values were fit by logistic regression.
(§2) Cell number was determined by cell counting using improved Neubauer hemacytometer. Cell viability was calculated as the number of viable cells divided by the total number of cells using Trypan Blue Stain (Invitrogen) to distinguish non-viable cells. Data were obtained from duplicated samples with quadruplicate measurements. MTS based cell viability assay was performed using CellTiter 96 Aqueous Cell Proliferation Assay (Promega) according to the manufacturer's instruction. […] After additional 2-3 h incubation, the absorbance of the formazan at 490 nm was measured by the microplate reader. […] Determination of non-viable cells using PI staining was performed by adding 1 μg/ml of PI solution (Sigma) to the cell culture, prior to the examination under fluorescence microscopy (Axiovert 3, Carl Zeiss) through a×32 objective equipped with a digital imaging processor (Infinity 3, Lumenera).

[2] = tested on: breast cancer cells (MCF-7 and MDA-MB-231); assay: PI staining cytotoxicity, breast cancer cells; type: cell-based, human
Experimental: FIG. 17. Selective cytotoxicity by BKAc-Puro on breast cancer cells. Normal mammary gland epithelial cells (Eph4) and breast cancer cells (MCF-7 and MDA-MB-231) were grown and analyzed as in FIG. 10. BF, bright field. PI, fluorescent PI channel. BKAc-Puro can selectively cause cell death in breast cancer cells (MCF-7 and MDA-MB-231) while leaving normal Eph4 cells unharmed.
as §2

[3] = tested on: non-malignant Caco-2 cells; assay: MTS cell viability assay, Caco-2; type: cell-based, human
Experimental: as §1, §2

[4] = tested on: malignant colon cancer cells with high HDAC and CTSL activity; assay: Cell number, trypan blue viability and PI staining, malignant colon cancer cells; type: cell-based, human; conditions: 54 μM
Experimental: FIG. 9. The colon cancer cell lines were grown for 5 d either with vehicle control DMSO (gray symbols) or 54 μM BKAc-Puro (red and blue symbols), and cell number was determined at the indicated time points.
FIG. 10. The cell lines were grown as in FIG. 8, cell viability was determined by trypan blue at the indicated time points, and is presented as the percentage of live cells treated with vehicle control (gray symbols) or BKAc-Puro (red and blue symbols).
FIG. 11. The cell lines were grown as in FIG. 8, and dead cells were determined after 80 h by PI signal under fluorescent microscope. BF, bright field. PI, fluorescent PI channel.
FIG. 12. Selective cytotoxicity by BKAc-Puro. The cell lines were grown and analyzed as in FIG. 10. […]
as §2, with “cells.” for “cells. Data were obtained from duplicated samples with quadruplicate measurements. MTS based cell viability assay was performed using CellTiter 96 Aqueous Cell Proliferation Assay (Promega) according to the manufacturer's instruction.”

[5] = tested on: HCT116, HT29, CCD841-CoN and Caco-2 cells; assay: Immunological detection of Puro-labeled proteins in cells; type: cell-based, human
Experimental: (§3) FIG. 27. Levels of Puro-incorporated proteins in the cells were monitored by immunoblotting. Indicated cell lines were treated either with vehicle control DMSO or Boc-KAc-Puro (16.9 μM) in the presence or absence of TSA (0.5 μM) for 20 h, followed by preparation of cell lysates. The lower panel (anti-α-Tubulin) serves as a loading control.
as §3, with “28.” for “27.”, “Puro (2.1” for “Boc-KAc-Puro (16.9”, “16” for “20”, “lysates. […]” for “lysates.”
Cultured cells or tissue samples were sonicated in RIPA lysis buffer (1% NP-40, 0.1% SDS, 50 mM Tris-HCl pH 7.4, 150 mM NaCl, 0.5% sodium deoxycholate, 1 mM EDTA) supplemented with PMSF and protease inhibitor cocktail (Roche) on ice followed by clarification. Protein lysates were separated on sodium dodecyl sulfate-polyacrylamide gels and transferred onto nitrocellulose membranes (Whatman). The primary antibodies used were anti-puromycin (3RH11, KeraFAST) and anti-α-tubulin (Sigma-Aldrich). Proteins of interest were detected with anti-mouse secondary antibody by chemiluminescence (ECL Kit, GE Healthcare Life Sciences).

[6] = tested on: HCT116 xenograft tumors
Description: HCT116 cells were implanted subcutaneously into female nude mice. When the developed tumors reached 200 mm^3, animals were intraperitoneally injected by the indicated dose of the compound or vehicle control (DMSO). Tumor volume was estimated by the equation vol=(a×b^2)/2, where vol, a, and b represent volume, the length of the major axis, and the length of the minor axis, respectively. […] (b) Body weight change during the treatment in a. Value is expressed in percent change compared to the day of the first treatment.
HCT116 cells were implanted subcutaneously into female nude mice. When palpable tumors reached 50-150 mm^3, animals were randomized and treated by the indicated dose of the compound or vehicle control (DMSO) via intraperitoneal injection. Tumor incidence is presented as number of mice developed tumor (volume>300 mm^3) after 2 weeks of daily treatment/number of mice treated. Tumor volume was estimated by the equation vol=(a×b^2)/2, where vol, a, and b represent volume, the length of the major axis, and the length of the minor axis, respectively.
The growth inhibitory effects of the compounds on size-matched xenografts are examined by subcutaneous implantation of HCT116 cells into nude mice. HCT116 cells are injected subcutaneously and allowed to develop palpable tumors (50-150 mm^3) before initiation of drug administration. Mice (5-10 animals per group) are treated with the vehicle (DMSO or PBS) or the prodrugs by intraperitoneal administration. […] Tumor volumes are approximated by using the equation vol=(a×b^2)/2, where vol, a, and b represent volume, the length of the major axis, and the length of the minor axis, respectively. Relative tumor volume is calculated by dividing tumor volume by that on day 0 (the day of treatment initiation). The weight of the mice is checked to monitor unfavorable effects by the compounds being tested and upon any indication of distress the mice is humanely euthanized.

SMILES: COc1ccc(C[C@H](NC(=O)[C@H](CCCCNC(C)=O)NC(=O)OC(C)(C)C)C(=O)N[C@H]2[C@@H](O)[C@H](n3cnc4c(N(C)C)ncnc43)O[C@@H]2CO)cc1 [BKAc-Puro, N-[3′-(α-Amino-p-methoxyhydrocinnamamido)-3′-deoxy-N,N-dimethyldenosinyl]-N-α-(t-butoxycarbonyl)-N-ε-acetyl-L-lysineamide]
- IC50 [1]: ~10 µM
- cell death [2]: selectively caused cell death
- highest inactive dose relative to dose of parental Puro effective to these cells ([3]; Caco-2, 135 μM BKAc-Puro vs parental Puro): more than 30 times
- IC50 ([3]; MTS, 5 d, sufficient inhibition not achieved with doses up to 135 μM): > 135 µM
- cell proliferation (cell number) ([4]; 5 d, all four malignant cells): impaired the proliferation
- cell death (trypan blue exclusion, morphology, PI staining) ([4]; colon cell line panel): massive cell death wass detected only in the malignant cells
- intensity of Puro incorporation in the presence of TSA ([5]; TSA 0.5 μM): compromised intensity
- intensity of Puro incorporation, malignant vs normal and non-malignant cells ([5]; immunoblot, Boc-KAc-Puro 16.9 μM 20 h, Puro 2.1 μM 16 h): substantially greater in malignant cancer cells
- tumor incidence (tumor volume above threshold after 2 weeks of daily treatment) ([6]; 200 mg/kg, intraperitoneal): no tumors greater than 300 mm^2 were observed
- tumor growth ([6]; intraperitoneal, tumors 200 mm^3 at start): inhibition of tumor growth
- toxicity in tumor incidence study ([6]; mouse, in vivo): no toxicity was observed
